{"source": "paper PMC11320734", "about": "(ACS Pharmacology & Translational Science, 2024)", "key": {"canine CB2R": {"biological_target": "canine CB2R (Canis lupus familiaris, UniProt E2RKA3)", "sequence (E2RKA3 1-360)": "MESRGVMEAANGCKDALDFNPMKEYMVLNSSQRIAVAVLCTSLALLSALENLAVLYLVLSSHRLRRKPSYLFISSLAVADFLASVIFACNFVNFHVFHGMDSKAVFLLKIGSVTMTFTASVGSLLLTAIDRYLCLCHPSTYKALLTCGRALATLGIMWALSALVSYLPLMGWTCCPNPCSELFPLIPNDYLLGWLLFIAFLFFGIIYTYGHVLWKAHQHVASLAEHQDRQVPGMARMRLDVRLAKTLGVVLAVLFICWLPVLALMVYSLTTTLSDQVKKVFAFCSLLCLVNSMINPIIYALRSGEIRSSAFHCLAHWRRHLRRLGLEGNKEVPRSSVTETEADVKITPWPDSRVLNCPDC", "assay": "cAMP assay in CHO cells", "type": "cell-based", "details": "mean ± SD; read-out: EC50 cAMP assay, dog CB2R"}, "80 additional receptors": {"test_system": "80 additional receptors", "assay": "CEREP off-target binding screen"}, "MAGL": {"biological_target": "MAGL (Homo sapiens, UniProt Q99685)", "sequence (Q99685 whole entry, species assumed)": "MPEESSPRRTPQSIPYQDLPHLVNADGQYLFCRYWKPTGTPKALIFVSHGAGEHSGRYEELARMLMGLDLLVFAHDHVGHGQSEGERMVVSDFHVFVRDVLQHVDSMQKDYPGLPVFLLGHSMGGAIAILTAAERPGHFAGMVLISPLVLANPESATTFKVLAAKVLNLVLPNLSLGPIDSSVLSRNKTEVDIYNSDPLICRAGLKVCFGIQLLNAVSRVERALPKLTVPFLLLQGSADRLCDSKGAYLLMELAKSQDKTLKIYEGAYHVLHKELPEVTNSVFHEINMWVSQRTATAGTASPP", "assay": "Endocannabinoid target profiling: MAGL", "type": "biochemical"}, "ABHD12": {"biological_target": "ABHD12 (Homo sapiens, UniProt Q8N2K0)", "sequence (Q8N2K0 whole entry, species assumed)": "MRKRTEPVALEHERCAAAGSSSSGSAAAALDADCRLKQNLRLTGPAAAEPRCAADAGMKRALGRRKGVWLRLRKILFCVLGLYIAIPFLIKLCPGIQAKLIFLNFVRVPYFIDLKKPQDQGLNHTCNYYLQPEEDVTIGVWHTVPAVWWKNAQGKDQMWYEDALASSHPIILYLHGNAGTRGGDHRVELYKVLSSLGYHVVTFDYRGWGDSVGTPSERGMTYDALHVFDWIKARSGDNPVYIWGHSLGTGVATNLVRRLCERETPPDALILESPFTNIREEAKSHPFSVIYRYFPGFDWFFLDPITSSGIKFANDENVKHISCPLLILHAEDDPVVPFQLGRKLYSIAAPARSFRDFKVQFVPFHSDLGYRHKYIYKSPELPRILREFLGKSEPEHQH", "assay": "Endocannabinoid target profiling: ABHD12", "type": "biochemical"}, "PPARg": {"biological_target": "PPARg (Homo sapiens, UniProt P37231)", "sequence (P37231 whole entry, species assumed)": "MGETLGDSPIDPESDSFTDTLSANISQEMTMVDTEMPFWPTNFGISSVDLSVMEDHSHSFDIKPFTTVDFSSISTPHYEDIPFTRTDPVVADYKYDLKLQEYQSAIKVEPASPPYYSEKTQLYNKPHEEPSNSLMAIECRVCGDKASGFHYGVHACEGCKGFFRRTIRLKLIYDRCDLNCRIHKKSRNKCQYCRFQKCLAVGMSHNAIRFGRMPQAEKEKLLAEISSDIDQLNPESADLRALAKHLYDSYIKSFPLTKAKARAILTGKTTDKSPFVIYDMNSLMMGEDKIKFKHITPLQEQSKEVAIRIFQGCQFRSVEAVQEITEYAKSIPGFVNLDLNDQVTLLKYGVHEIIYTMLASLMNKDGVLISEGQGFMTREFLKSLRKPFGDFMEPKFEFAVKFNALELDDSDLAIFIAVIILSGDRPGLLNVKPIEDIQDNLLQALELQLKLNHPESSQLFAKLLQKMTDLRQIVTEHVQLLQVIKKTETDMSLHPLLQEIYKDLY", "assay": "Endocannabinoid target profiling: PPARg", "details": "Table S1; read-out: PPARg (Ki, IC50)"}, "[1]": {"assay": "Octanol/water distribution coefficient (logD), CAMDIS assay", "type": "physicochemical", "procedure": "For the determination of the octanol/water distribution coefficient (logD), the carrier-mediated distribution system (CAMDIS)-assay was used as described elsewhere.[38] Kinetic and thermodynamic solubilities were assessed using the lyophilization solubility assay (LYSA) and thermodynamic solubility assay (THESA), respectively. For the LYSA, the solubility of RNB- 61 in phosphate buffer at pH 6.5 from an evaporated 10 mM DMSO compound stock solution was measured. Two aliquots of the test compounds were dried and dissolved in phosphate buffer at pH 6.5. The solutions were then filtered and diluted (3 different dilution levels for each compound) before high throughput mass spectrometry (MS) analysis was performed in an Agilent RapidFire system. Each test compound was quantified using a 6-point calibration curve prepared with the same DMSO starting solution. For THESA, RNB-61 (8.6 mg per mL solvent/vehicle) was stirred in HPLC vials (9 × 12 × 32 mm, Waters) at 350 rpm for 15 h. The presence of solid particles was determined by microscopic analysis of 10 μL samples. If the active pharmacological ingredient (API) was completely dissolved, more solid API was added before stirring for another 15 h. This step was repeated for up to 96 h or until residual solid particles could be detected. Samples (0.5 mL) were transferred to Eppendorf Ultrafree filter tubes (Filter: PVDF 0.22 μm) and centrifuged at 14,500 rpm for 10 min. The filtrates were diluted in ethanol and analyzed by ultra-performance liquid chromatography (UPLC). Measurements were repeated in 0.05 M aqueous phosphate buffer and in fasted (FaSSIF) and fed (FeSSIF) simulated gastrointestinal fluids."}, "CYP450 2C9": {"biological_target": "T1, CYP450 2C9 (Homo sapiens, UniProt P11712)", "T1 construct": "pooled human liver microsomes; from tissue; host or cells: pooled human liver microsomes", "T1 sequence (P11712 whole entry)": "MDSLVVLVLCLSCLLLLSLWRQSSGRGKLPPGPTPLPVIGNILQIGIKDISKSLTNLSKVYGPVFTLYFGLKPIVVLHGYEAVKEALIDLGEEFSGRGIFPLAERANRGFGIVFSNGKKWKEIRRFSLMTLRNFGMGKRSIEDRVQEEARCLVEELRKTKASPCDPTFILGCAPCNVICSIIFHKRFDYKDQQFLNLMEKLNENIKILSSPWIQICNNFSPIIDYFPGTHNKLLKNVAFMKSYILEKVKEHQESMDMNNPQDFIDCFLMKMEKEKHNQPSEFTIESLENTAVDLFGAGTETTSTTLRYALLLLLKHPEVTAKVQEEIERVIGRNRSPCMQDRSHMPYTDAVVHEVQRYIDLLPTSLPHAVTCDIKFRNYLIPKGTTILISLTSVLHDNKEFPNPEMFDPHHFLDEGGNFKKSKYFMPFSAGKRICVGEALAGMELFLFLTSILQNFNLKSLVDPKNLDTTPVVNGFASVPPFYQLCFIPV", "assay": "CYP inhibition in pooled human liver microsomes", "type": "in vitro ADME", "procedure": "(§1) Cytochrome P450 (CYP) assays were conducted as previously described.[41] In brief, RNB-61 was incubated at a range of concentrations with the following components: pooled human liver microsomes, CYP probe substrate around the reported Km, and NADPH with a final concentration: 1 mM in 100 mM sodium phosphate buffer (pH 7.4). The conditions were optimized for a linear metabolic rate for the probe substrate reactions. The analysis of the samples was carried out by LC-MS/MS. The assays generated two endpoints: IC50 (μM) and percent inhibition at the highest acceptable test concentration (typically 50 μM; lower if the highest concentration data are rejected due to insolubility). […] (GSH) adduct formation data was assessed as reported in a previous study.[42] Briefly, RNB-61 was incubated with human liver microsomes to form reactive metabolites, and glutathione was added as a nucleophile to convert the reactive metabolites into stable conjugates that could be analyzed by MS."}, "CYP450 2D6": {"biological_target": "T2, CYP450 2D6 (Homo sapiens, UniProt P10635)", "T2 construct": "pooled human liver microsomes; from tissue; host or cells: pooled human liver microsomes", "T2 sequence (P10635 whole entry)": "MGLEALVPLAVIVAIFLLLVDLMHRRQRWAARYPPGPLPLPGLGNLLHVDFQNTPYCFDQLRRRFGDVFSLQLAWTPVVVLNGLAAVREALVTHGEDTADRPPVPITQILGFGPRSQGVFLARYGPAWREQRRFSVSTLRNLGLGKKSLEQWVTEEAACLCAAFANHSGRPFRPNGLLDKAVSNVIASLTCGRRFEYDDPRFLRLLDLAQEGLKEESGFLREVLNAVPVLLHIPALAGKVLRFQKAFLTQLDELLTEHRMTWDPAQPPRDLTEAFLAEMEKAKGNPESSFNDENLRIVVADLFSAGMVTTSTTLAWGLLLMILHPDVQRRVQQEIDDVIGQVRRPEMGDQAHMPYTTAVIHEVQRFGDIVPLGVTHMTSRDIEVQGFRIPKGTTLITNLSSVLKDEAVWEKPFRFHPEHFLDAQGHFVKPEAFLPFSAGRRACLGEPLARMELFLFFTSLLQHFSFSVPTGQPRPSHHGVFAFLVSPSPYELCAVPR", "assay": "CYP inhibition in pooled human liver microsomes", "type": "in vitro ADME", "procedure": "as §1"}, "CYP450 3A4": {"biological_target": "T3, CYP450 3A4 (Homo sapiens, UniProt P08684)", "T3 construct": "pooled human liver microsomes; from tissue; host or cells: pooled human liver microsomes", "T3 sequence (P08684 whole entry)": "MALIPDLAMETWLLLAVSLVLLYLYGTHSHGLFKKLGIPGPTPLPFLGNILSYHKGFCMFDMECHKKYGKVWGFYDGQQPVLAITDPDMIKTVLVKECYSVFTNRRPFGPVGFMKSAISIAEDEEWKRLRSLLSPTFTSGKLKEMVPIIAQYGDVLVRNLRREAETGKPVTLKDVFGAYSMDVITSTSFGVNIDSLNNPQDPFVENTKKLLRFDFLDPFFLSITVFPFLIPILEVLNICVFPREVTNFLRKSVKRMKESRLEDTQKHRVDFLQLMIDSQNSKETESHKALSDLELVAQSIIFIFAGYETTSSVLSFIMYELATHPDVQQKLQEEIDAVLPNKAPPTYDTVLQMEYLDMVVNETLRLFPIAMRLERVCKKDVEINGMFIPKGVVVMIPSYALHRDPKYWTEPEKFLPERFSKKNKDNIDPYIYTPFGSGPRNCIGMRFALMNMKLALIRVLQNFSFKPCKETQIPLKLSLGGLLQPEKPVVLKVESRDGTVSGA", "assay": "CYP inhibition in pooled human liver microsomes", "type": "in vitro ADME", "procedure": "as §1"}, "GSH adduct formation": {"assay": "GSH adduct formation", "type": "in vitro ADME, rat", "procedure": "as §1"}, "[2]": {"test_system": "renal I/R-induced acute kidney injury", "assay": "Ischemia/reperfusion (I/R) model of acute kidney injury", "type": "in vivo, C57BL/6 mice", "procedure": "In the ischemia/reperfusion (I/R) model of acute kidney injury (AKI),[47],[48] the compounds were administered orally by gavage to C57BL/6 mice 30 min before ischemia obtained by clamping both renal arteries and veins for 25 min, followed by 24 h of reperfusion. Mice were anesthetized using xylazine (10 mg kg^–1)/ketamine (100 mg kg^–1) injected intraperitoneally. Sham treated mice were treated identically except for the temporary closure of the renal vessels. After 24 h, under reanesthesia, plasma was taken for biomarker analysis. Thereafter, mice still in deep anesthesia were sacrificed by cervical dislocation. Creatinine, BUN (blood urea nitrogen), NGAL (neutrophil gelatinase-associated lipocalin), osteopontin, and KIM1 (kidney injury molecule-1) levels were determined using the following commercially available standard assays: creatinine: Roche Diagnostics 03263991, BUN: Roche Diagnostics 04460715, NGAL: BioPorto, Kit046 + Kit042, osteopontin: R&D Systems, MOST00, KIM-1: Abnova, KA1064. To assess fibrotic effects, we used the unilateral ureteral obstruction (UOO) model in Sprague–Dawley rats.[49] For the UOO model, rats were sacrificed after 5, 8, and 11 days and the percentage of PicroSirius Red positive areas (indicator of collagen III–I deposition) were measured in 4 μm histological cross sections of the kidney after 2% paraformaldehyde perfusion fixation and paraffin embedding. The extend of kidney fibrosis was quantified based on PicroSirius Red staining of 10 renal sections about 1 mm apart from each kidney. The collagen–III-I-positive pixel counts were determined in the cortical aspect of each kidney section from 10 optical fields using a 40× objective. As the total area analyzed was identical for all kidneys under investigation, the absolute number of pixels was used as the relevant readout. Vehicle treated animals received saline gavage only. The details of PicroSirius Red staining were previously described.[22]"}, "human CB2R": {"biological_target": "human CB2R (Homo sapiens, UniProt P34972)", "sequence (P34972 whole entry)": "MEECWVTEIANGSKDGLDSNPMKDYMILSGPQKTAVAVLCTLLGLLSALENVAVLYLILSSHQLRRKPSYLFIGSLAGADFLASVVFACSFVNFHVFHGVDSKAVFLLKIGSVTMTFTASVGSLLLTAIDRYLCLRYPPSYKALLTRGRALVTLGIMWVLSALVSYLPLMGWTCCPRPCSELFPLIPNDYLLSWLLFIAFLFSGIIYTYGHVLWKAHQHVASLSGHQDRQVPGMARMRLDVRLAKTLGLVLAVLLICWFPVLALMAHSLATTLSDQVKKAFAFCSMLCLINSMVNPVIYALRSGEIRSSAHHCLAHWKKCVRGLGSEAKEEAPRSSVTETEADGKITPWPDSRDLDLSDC", "assay": "Competition binding assay with [3H]-CP55940, HEK cell membranes", "quoted_text": "Competition and saturation binding assays were performed using the radiolabeled CB1R/CB2R agonist [^3H]-CP55940 (PerkinElmer).\nBinding reactions were terminated by vacuum filtration onto 0.5% polyethylenimine presoaked GF/B filter plates (Packard) using a Filtermate cell harvester followed by 6 brief washes with 0.3 mL/well of ice-cold wash buffer. Wash buffer comprising 50 mmol L^–1 Tris- HCl, 5 mmol L^–1 MgCl2, 2.5 mmol L^–1 EDTA, and 0.5% fatty acid-free BSA, pH 7.4. Plates were dried at 50 °C for 1 h and liquid scintillation counting was used to determine levels of bound radiolabel. IC50 values and Hill slopes were determined with a 4-parameter logistic model using ActivityBase (ID Business Solution, Guilford, UK) and pKi values were determined using the Cheng–Prusoff equation as shown below: [drawing 1] where S indicates the concentration of the substrate and Km depicts the affinity constant of the substrate."}, "[3]": {"details": "3 mg kg^–1 p.o., 24 h reperfusion"}, "[4]": {"details": "maximal protection at 3–30 mg kg^–1"}}, "note": "Where two headings read alike, the source gives them in different places."}
{"smiles": "Cn1c(C(C)(C)C)cc(=NC(=O)c2cc(C(F)(F)F)ccc2OCC(C)(C)O)n1CC1CCC1", "note": "[RNB-61]", "values": [{"measurement": "EC50", "setting": "canine CB2R", "value": "1.86 ± 1.58", "unit": "nM"}, {"measurement": "binding to 80 additional receptors (significant = ≥50% of probe displacement)", "setting": "80 additional receptors; 10 μM, most receptors, exception Na+ channel site 2", "value": "no significant binding"}, {"measurement": "interaction with 80 additional receptor targets (significant = >50% inhibition)", "setting": "80 additional receptors; up to 1 μM", "value": "no significant interaction"}, {"measurement": "IC50", "setting": "MAGL; Table S1, read-out: MAGL (Ki, IC50)", "value": "> 10", "unit": "µM"}, {"measurement": "inhibition of EC hydrolysis by MAGL", "setting": "MAGL; screening concentration 10 μM", "value": "did not inhibit"}, {"measurement": "IC50", "setting": "ABHD12; Table S1, read-out: ABHD12 (Ki, IC50)", "value": "> 10", "unit": "µM"}, {"measurement": "inhibition of EC hydrolysis by ABHD12", "setting": "ABHD12; screening concentration 10 μM", "value": "did not inhibit"}, {"measurement": "IC50", "setting": "PPARg", "value": "> 10", "unit": "µM"}, {"measurement": "logD", "setting": "[1]; Table 3, read-out: clogP (cell says logD)", "value": 3.34}, {"measurement": "logD", "setting": "[1]; octanol/water, read-out: logD", "value": 3.3}, {"measurement": "IC50", "setting": "CYP450 2C9", "value": 50, "unit": "µM"}, {"measurement": "IC50", "setting": "CYP450 2D6", "value": 15.5, "unit": "µM"}, {"measurement": "IC50", "setting": "CYP450 3A4", "value": 35.5, "unit": "µM"}, {"measurement": "GSH adducts (rat liver microsomes)", "setting": "GSH adduct formation", "value": "did not form any adducts"}, {"measurement": "effect on I/R induced plasma creatinine levels", "setting": "[2]; 0.1 mg kg^–1", "value": "No significant difference"}, {"measurement": "reduction of BUN compared to vehicle", "setting": "[2]; [3]", "value": 30, "unit": "%"}, {"measurement": "reduction of plasma creatinine compared to vehicle", "setting": "[2]; [3]", "value": 48, "unit": "%"}, {"measurement": "reduction of plasma KIM-1 compared to vehicle", "setting": "[2]; [4]", "value": 50, "unit": "%"}, {"measurement": "reduction of plasma NGAL compared to vehicle", "setting": "[2]; [4]", "value": 39, "unit": "%"}, {"measurement": "reduction of plasma osteopontin compared to vehicle", "setting": "[2]; [4]", "value": 43, "unit": "%"}, {"measurement": "dose from which KIM-1 release is inhibited", "setting": "[2]; mouse, in vivo", "value": 0.3, "unit": "mg kg^–1"}, {"measurement": "dose from which NGAL release is inhibited", "setting": "[2]; mouse, in vivo", "value": 0.3, "unit": "mg kg^–1"}, {"measurement": "dose from which osteopontin release is inhibited", "setting": "[2]; mouse, in vivo", "value": 3, "unit": "mg kg^–1"}, {"measurement": "Ki", "setting": "human CB2R", "value": "0.57 ± 0.03", "unit": "nM"}, {"measurement": "hCB2R selectivity", "setting": "human CB2R; Ki hCB1R over Ki hCB2R", "value": 6810}, {"measurement": "selectivity over hCB1R", "setting": "human CB2R; hCB2R over hCB1R", "value": "6,800 fold"}]}
